Where two headings read alike, the source gives them in different places.

As a reminder, the ED50 is the midpoint of the dose-response relation. Usually melting point stands for the temperature, or range, at which the solid turns liquid. In general, TD50 refers to the dose at which the toxic effect under study appears in half of the subjects. A high value points to harm only at a large dose.

The test system of data set [1] is 6 Hz (32 mA) seizures, mice. The data set can be described thus: Psychomotor 6 Hz (32 mA) seizure model. To be noted: for responders at 100 mg/kg / ED50: Mus musculus, ip; for responders at 100 mg/kg / protection in the 6 Hz (32 mA) test: 0.5 h, 100 mg/kg; for responders at 100 mg/kg: read-out: 6 Hz (32 mA) test, number of mice protected / number of mice tested (converted); for ED50: at TPE (0.5 h; LTG 1.0 h), 95% confidence intervals in parentheses; for protection in the 6 Hz (32 mA) test: i.p., groups of four. Type of data set: in vivo.

The subject of a further data set is MES seizures, mice. The data set can be described thus: Maximal electroshock (MES) seizure test. Type of data set: in vivo. The note with it: Mus musculus, ip; for responders at 100 mg/kg: 0.5 h, i.p.; for ED50: at TPE (0.5 h; LTG 1.0 h), 95% confidence intervals in parentheses. (In the maximal electroshock model the usual endpoint is tonic extension of the hind limbs.)

Data set [2] is described as follows: Rotarod test for acute neurological toxicity. The note with it: mouse, in vivo, ip.
In data set [3] the test system is motor coordination of mice. The data set can be described thus: Rotarod test for acute neurological toxicity. The note with it: for impairment of motor coordination of mice: doses as high as 300 mg/kg; for Rotarod test, number of mice / number of mice tested: i.p., 100 mg/kg, 0.5 h. For orientation: Falling from the rotarod earlier than controls is read as motor impairment.

Setting [4] is: read-out: MES test, number of mice protected / number of mice tested (converted).
Where [5] appears, read: groups of four, read-out: protection in the MES test.

On to `O=C(Nc1cccc(F)c1)C(c1ccccc1)N1C(=O)CCC1=O` (stereo not shown) [Compound 5, 2-(2,5-Dioxopyrrolidin-1-yl)-N-(3-fluorophenyl)-2-phenylacetamide], for which the responders at 100 mg/kg is 25% in data set [1] and 0% in the data set with MES seizures, mice (setting [4]).
`O=C(Nc1ccc(F)cc1)C(c1ccccc1)N1C(=O)CCC1=O` (stereo not shown) [Compound 6, 2-(2,5-Dioxopyrrolidin-1-yl)-N-(4-fluorophenyl)-2-phenylacetamide] displayed a melting point of 143.4 to 143.9 °C. In data set [1], the responders at 100 mg/kg was 50%, the ED50 was determined as 57.6 mg/kg and the “protection in the 6 Hz (32 mA) test” value was “at least 50%”. Further, the TD50 at 0.5 h in data set [2] was above 300 mg/kg. Besides, in data set [3], the “impairment of motor coordination of mice” value is on record as “did not impair motor coordination” and the “Rotarod test, number of mice / number of mice tested” value is listed as 0/4. Besides, the responders at 100 mg/kg in the data set on MES seizures, mice (setting [5]) was at least 50%. Also, in the data set with MES seizures, mice (setting [4]), the responders at 100 mg/kg was 50%. In addition, in the data set on MES seizures, mice, the ED50 worked out at 118 mg/kg.
Compound `O=C(Nc1ccccc1Cl)C(c1ccccc1)N1C(=O)CCC1=O` (stereo not shown) [Compound 7, N-(2-Chlorophenyl)-2-(2,5-dioxopyrrolidin-1-yl)-2-phenylacetamide] yielded a melting point of 76.8 to 78.6 °C. The responders at 100 mg/kg in data set [1] was 25%. For the same compound, the responders at 100 mg/kg in the data set on MES seizures, mice (setting [4]) is 0%.
The compound `O=C(Nc1cccc(Cl)c1)C(c1ccccc1)N1C(=O)CCC1=O` (stereo not shown) [Compound 8, N-(3-Chlorophenyl)-2-(2,5-dioxopyrrolidin-1-yl)-2-phenylacetamide] had a melting point of 109.4 to 109.9 °C. Further, the responders at 100 mg/kg in data set [1] was 25%. Also, the TD50 at 0.5 h in data set [2] was above 300 mg/kg. Besides, in data set [3], the “impairment of motor coordination of mice” value is on record as “did not impair motor coordination” and the “Rotarod test, number of mice / number of mice tested” value is listed as 0/4. Also, in the data set on MES seizures, mice (setting [5]), the responders at 100 mg/kg is at least 50%. In addition, the responders at 100 mg/kg in the data set with MES seizures, mice (setting [4]) was 75%. In the data set with MES seizures, mice, the 50% effective dose (ED50) worked out at 73.5 mg/kg.
With `O=C(Nc1ccc(Cl)cc1)C(c1ccccc1)N1C(=O)CCC1=O` (stereo not shown) [Compound 9, N-(4-Chlorophenyl)-2-(2,5-dioxopyrrolidin-1-yl)-2-phenylacetamide], the melting point lay in the range of 103.8 to 105.6 °C. In data set [1], the responders at 100 mg/kg was 25%. Also, the TD50 at 0.5 h in data set [2] is above 300 mg/kg. In data set [3], the “impairment of motor coordination of mice” value is “did not impair motor coordination” and the “Rotarod test, number of mice / number of mice tested” value is 0/4. In the data set on MES seizures, mice (setting [5]), the responders at 100 mg/kg is at least 50%. In the data set with MES seizures, mice (setting [4]), the responders at 100 mg/kg was 75%. Moreover, the ED50 in the data set with MES seizures, mice turned out to be 106 mg/kg.
With `O=C(Nc1ccccc1C(F)(F)F)C(c1ccccc1)N1C(=O)CCC1=O` (stereo not shown) [Compound 10, 2-(2,5-Dioxopyrrolidin-1-yl)-2-phenyl-N-(2-(trifluoromethyl)phenyl)acetamide], the responders at 100 mg/kg with MES seizures, mice (setting [4]) is 0%.
Turning to `O=C(Nc1cccc(C(F)(F)F)c1)C(c1ccccc1)N1C(=O)CCC1=O` (stereo not shown) [Compound 11, 2-(2,5-Dioxopyrrolidin-1-yl)-2-phenyl-N-(3-(trifluoromethyl)phenyl)acetamide], the melting point was 158.2 to 159.4 °C. The responders at 100 mg/kg in the data set with MES seizures, mice (setting [4]) is 25%.
Compound `O=C(Nc1ccc(C(F)(F)F)cc1)C(c1ccccc1)N1C(=O)CCC1=O` (stereo not shown) [Compound 12, 2-(2,5-Dioxopyrrolidin-1-yl)-2-phenyl-N-(4-(trifluoromethyl)phenyl)acetamide] returned a melting point of 188.1 to 188.5 °C. The responders at 100 mg/kg in the data set with MES seizures, mice (setting [4]) is 0%.
On the same counts, the results for `O=C(Nc1cccc(OC(F)(F)F)c1)C(c1ccccc1)N1C(=O)CCC1=O` (stereo not shown) [Compound 13, 2-(2,5-Dioxopyrrolidin-1-yl)-2-phenyl-N-(3-(trifluoromethoxy)phenyl)acetamide] are 132.6 to 133.4 °C and 0%.
`O=C(NCc1ccccc1)C(c1ccccc1)N1C(=O)CCC1=O` (stereo not shown) [Compound 14, N-Benzyl-2-(2,5-dioxopyrrolidin-1-yl)-2-phenylacetamide]: the melting point is 128.3 to 129.9 °C. In data set [1], the responders at 100 mg/kg was 50%, the 50% effective dose (ED50) was found to be 62.9 mg/kg and the “protection in the 6 Hz (32 mA) test” value is on record as “at least 50%”. In data set [2], this compound showed a TD50 at 0.5 h above 300 mg/kg. In data set [3], the “impairment of motor coordination of mice” value is recorded as “did not impair motor coordination” and the “Rotarod test, number of mice / number of mice tested” value is 1/4. Besides, in the data set with MES seizures, mice (setting [5]), the responders at 100 mg/kg is at least 50%. Also, in the data set with MES seizures, mice (setting [4]), the responders at 100 mg/kg was 50%. Further, the ED50 in the data set on MES seizures, mice was above 130 mg/kg.
Compound `O=C(NCc1ccccc1F)C(c1ccccc1)N1C(=O)CCC1=O` (stereo not shown) [Compound 15, 2-(2,5-Dioxopyrrolidin-1-yl)-N-(2-fluorobenzyl)-2-phenylacetamide] showed a melting point of 148.3 to 149.3 °C. In the data set on MES seizures, mice (setting [4]), the responders at 100 mg/kg was 25%.
The corresponding values for `O=C(NCc1cccc(F)c1)C(c1ccccc1)N1C(=O)CCC1=O` (stereo not shown) [Compound 16, 2-(2,5-Dioxopyrrolidin-1-yl)-N-(3-fluorobenzyl)-2-phenylacetamide] are 136.7 to 137.7 °C and 25%.
On the same counts, the results for `O=C(NCc1ccc(F)cc1)C(c1ccccc1)N1C(=O)CCC1=O` (stereo not shown) [Compound 17, 2-(2,5-Dioxopyrrolidin-1-yl)-N-(4-fluorobenzyl)-2-phenylacetamide] are 146.3 to 147.7 °C and 0%.
On the same counts, the results for `O=C(NCc1ccccc1Cl)C(c1ccccc1)N1C(=O)CCC1=O` (stereo not shown) [Compound 18, N-(2-Chlorobenzyl)-2-(2,5-dioxopyrrolidin-1-yl)-2-phenylacetamide] are 152 to 153.6 °C and 0%.
As for `O=C(NCc1cccc(Cl)c1)C(c1ccccc1)N1C(=O)CCC1=O` (stereo not shown) [Compound 19, N-(3-Chlorobenzyl)-2-(2,5-dioxopyrrolidin-1-yl)-2-phenylacetamide], in data set [1], the responders at 100 mg/kg was 50%, the ED50 came out at 89.9 mg/kg and the “protection in the 6 Hz (32 mA) test” value was “at least 50%”. In addition, the TD50 at 0.5 h in data set [2] was above 300 mg/kg. In data set [3], the “impairment of motor coordination of mice” value was “did not impair motor coordination” and the “Rotarod test, number of mice / number of mice tested” value is given as 0/4. Besides, in the data set with MES seizures, mice (setting [5]), the responders at 100 mg/kg is at least 50%. Further, in the data set with MES seizures, mice (setting [4]), the responders at 100 mg/kg was 75%. Moreover, the 50% effective dose (ED50) in the data set on MES seizures, mice is 90.7 mg/kg.
In turn, `O=C(NCc1ccc(Cl)cc1)C(c1ccccc1)N1C(=O)CCC1=O` (stereo not shown) [Compound 20, N-(4-Chlorobenzyl)-2-(2,5-dioxopyrrolidin-1-yl)-2-phenylacetamide] registered a melting point of 146.3 to 147.9 °C. In addition, the responders at 100 mg/kg with MES seizures, mice (setting [4]) was 0%.
Regarding `O=C(NCc1cccc(C(F)(F)F)c1)C(c1ccccc1)N1C(=O)CCC1=O` (stereo not shown) [Compound 22, 2-(2,5-Dioxopyrrolidin-1-yl)-2-phenyl-N-(3-(trifluoromethyl)benzyl)acetamide], the melting point fell in the range of 152.8 to 153.4 °C. Moreover, in data set [1], the responders at 100 mg/kg is 50%, the ED50 is 57.6 mg/kg and the “protection in the 6 Hz (32 mA) test” value is reported as “at least 50%”. The compound further gave a TD50 at 0.5 h in data set [2] above 300 mg/kg. In data set [3], the “impairment of motor coordination of mice” value is given as “did not impair motor coordination” and the “Rotarod test, number of mice / number of mice tested” value is 0/4. The responders at 100 mg/kg in the data set on MES seizures, mice (setting [5]) was at least 50%. Moreover, the responders at 100 mg/kg in the data set on MES seizures, mice (setting [4]) was 75%. Further, the ED50 with MES seizures, mice was above 130 mg/kg.
Regarding `O=C(NCc1ccc(C(F)(F)F)cc1)C(c1ccccc1)N1C(=O)CCC1=O` (stereo not shown) [Compound 23, 2-(2,5-Dioxopyrrolidin-1-yl)-2-phenyl-N-(4-(trifluoromethyl)benzyl)acetamide], the responders at 100 mg/kg in the data set on MES seizures, mice (setting [4]) is 0%.
As for `O=C(NCCc1ccccc1F)C(c1ccccc1)N1C(=O)CCC1=O` (stereo not shown) [Compound 26, 2-(2,5-Dioxopyrrolidin-1-yl)-N-(2-fluorophenethyl)-2-phenylacetamide], the melting point was in the range of 142.4 to 142.8 °C. The responders at 100 mg/kg in the data set with MES seizures, mice (setting [4]) is 25%.
Compound `O=C(NCCc1ccc(Cl)cc1)C(c1ccccc1)N1C(=O)CCC1=O` (stereo not shown) [Compound 28, N-(4-Chlorophenethyl)-2-(2,5-dioxopyrrolidin-1-yl)-2-phenylacetamide] returned a melting point of 137.2 to 137.8 °C. In addition, in data set [1], the responders at 100 mg/kg is 75% and the ED50 stood at 88.1 mg/kg. In data set [2], this compound showed a TD50 at 0.5 h of 272 mg/kg. For the same compound, in data set [3], the “Rotarod test, number of mice / number of mice tested” value is 1/4. The responders at 100 mg/kg in the data set with MES seizures, mice (setting [4]) was 100%. In addition, the median effective dose (ED50) in the data set on MES seizures, mice was 117 mg/kg.
In turn, `O=C(NCCCc1ccccc1)C(c1ccccc1)N1C(=O)CCC1=O` (stereo not shown) [Compound 31, 2-(2,5-Dioxopyrrolidin-1-yl)-2-phenyl-N-(3-phenylpropyl)acetamide] returned a melting point of 133.1 to 133.9 °C. For the same compound, in data set [1], the responders at 100 mg/kg was 50% and the ED50 amounted to 104 mg/kg. In data set [2], this compound gave a TD50 at 0.5 h above 300 mg/kg. In addition, the “Rotarod test, number of mice / number of mice tested” value in data set [3] is 0/4. Besides, the responders at 100 mg/kg in the data set on MES seizures, mice (setting [5]) was at least 50%. In addition, the responders at 100 mg/kg in the data set with MES seizures, mice (setting [4]) is 50%.

The values are drawn from article PMC7699745, “The Search for New Anticonvulsants in a Group of (2,5-Dioxopyrrolidin-1-yl)(phenyl)Acetamides with Hybrid Structure—Synthesis and In Vivo/In Vitro Studies” (International Journal of Molecular Sciences, 2020).
